According to patent publication US20230024302A1, “2,3,5-TRISUBSTITUTED PYRAZOLO[1,5-A]PYRIMIDINE COMPOUNDS” (Arcus Biosciences, Inc., priority 2019, published 2023):

Assays:
[1] = target: T1, PI3Kγ (Homo sapiens, UniProt P48736); assay: PI3Kγ cellular assay in THP-1 cells (AKT pS473 AlphaLISA); assay type: cell-based; settings: Table 1, rhMCP-1 stimulated AKT pS473, read-out: cellular potency (PI3Kγ IC50)
T1 construct: host or cells: THP-1
Outline: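 Endogenous AKT S473 phosphorylation, detected by AlphaLISA in lysates, serves as the PI3Kγ activity read-out in stimulated, serum-starved THP-1 cells (1.8×10^5/well).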

[2] = target: T2, PI3Kγ (p120γ) (Homo sapiens, UniProt P48736); assay: Inhibition of PI3K kinase activity (ADP Glo), PI3Kγ; settings: Table 1, p120γ, read-out: biochemical potency (PI3Kγ IC50)
T2 construct: purchased Promega V1761
T2 sequence (P48736 whole entry): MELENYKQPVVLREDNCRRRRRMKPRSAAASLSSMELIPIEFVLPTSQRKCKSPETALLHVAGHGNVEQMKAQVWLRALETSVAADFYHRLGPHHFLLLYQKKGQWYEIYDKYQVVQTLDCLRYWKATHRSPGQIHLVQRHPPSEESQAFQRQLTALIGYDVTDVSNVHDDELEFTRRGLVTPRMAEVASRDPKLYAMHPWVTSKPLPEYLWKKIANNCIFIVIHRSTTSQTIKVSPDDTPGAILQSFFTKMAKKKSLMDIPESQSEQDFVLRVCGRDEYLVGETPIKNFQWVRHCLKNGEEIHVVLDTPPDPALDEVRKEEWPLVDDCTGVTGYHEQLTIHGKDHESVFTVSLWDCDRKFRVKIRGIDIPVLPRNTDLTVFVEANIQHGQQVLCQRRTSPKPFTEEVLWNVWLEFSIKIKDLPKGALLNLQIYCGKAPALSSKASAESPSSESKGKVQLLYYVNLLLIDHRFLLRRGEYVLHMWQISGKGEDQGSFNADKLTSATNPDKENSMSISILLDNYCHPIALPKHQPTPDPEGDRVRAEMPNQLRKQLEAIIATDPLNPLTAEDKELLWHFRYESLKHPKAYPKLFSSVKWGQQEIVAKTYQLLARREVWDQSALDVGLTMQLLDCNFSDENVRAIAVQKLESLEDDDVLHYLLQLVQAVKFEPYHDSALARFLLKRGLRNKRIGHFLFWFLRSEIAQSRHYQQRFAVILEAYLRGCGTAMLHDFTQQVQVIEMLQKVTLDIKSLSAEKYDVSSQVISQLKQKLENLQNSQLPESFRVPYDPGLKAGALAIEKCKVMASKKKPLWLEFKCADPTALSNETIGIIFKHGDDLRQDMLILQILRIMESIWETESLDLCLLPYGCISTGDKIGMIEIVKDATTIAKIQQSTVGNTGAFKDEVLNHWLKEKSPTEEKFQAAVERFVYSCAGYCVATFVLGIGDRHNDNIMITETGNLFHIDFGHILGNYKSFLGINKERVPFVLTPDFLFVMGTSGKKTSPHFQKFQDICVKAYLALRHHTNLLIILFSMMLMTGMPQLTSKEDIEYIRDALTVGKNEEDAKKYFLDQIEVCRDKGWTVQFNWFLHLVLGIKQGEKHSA
Outline: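 IC50 values come from a 4-parameter nonlinear fit of ADP-Glo luminescence, which measures ADP produced as PIP2 is phosphorylated to PIP3. The p120γ enzyme (2× stock 8 nM) sat with compound 1 h at rt before substrate (2× stocks: 50 μM ATP, 0.1 mg/ml PIP2) was added. Phosphorylation then proceeded 60 min at rt.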

T1 sequence (P48736 whole entry): as above

Structure (SMILES)	IC50 [1]	IC50 [2]
C[C@@H](C1CC1)N1Cc2cc(-c3ccn4nc(N)c(C(=O)NC5(C)COC5)c4n3)cc(C(F)(F)F)c2C1=O [Example 56, 2-[(S)-1-Cyclopropylethyl]-5-{2-amino-3-[(3-methyl-3-oxetanylamino)carbonyl]-1,4,7a-triaza-5-indenyl}-7-(trifluoromethyl)-1-isoindolinone]	< 100 nM	< 100 nM
C[C@H](CCO)NC(=O)c1c(N)nn2ccc(-c3cc4c(c(C(F)(F)F)c3)C(=O)N([C@@H](C)C3CC3)C4)nc12 [Example 57, 5-(3-{[(R)-3-Hydroxy-1-methylpropylamino]carbonyl}-2-amino-1,4,7a-triaza-5-indenyl)-2-[(S)-1-cyclopropylethyl]-7-(trifluoromethyl)-1-isoindolinone]	< 100 nM	< 100 nM
C[C@@H](C1CC1)N1Cc2cc(-c3ccn4nc(N)c(C(=O)NCCCCO)c4n3)cc(C(F)(F)F)c2C1=O [Example 58, 2-[(S)-1-Cyclopropylethyl]-5-{2-amino-3-[(4-hydroxybutylamino)carbonyl]-1,4,7a-triaza-5-indenyl}-7-(trifluoromethyl)-1-isoindolinone]	< 100 nM	< 100 nM
C[C@@H](C1CC1)N1Cc2cc(-c3ccn4nc(N)c(C(=O)NCCC(C)(C)O)c4n3)cc(C(F)(F)F)c2C1=O [Example 59, 2-[(S)-1-Cyclopropylethyl]-5-{2-amino-3-[(3-hydroxy-3-methylbutylamino)carbonyl]-1,4,7a-triaza-5-indenyl}-7-(trifluoromethyl)-1-isoindolinone]	< 100 nM	< 100 nM
C[C@@H](C1CC1)N1Cc2cc(-c3ccn4nc(N)c(C(=O)N[C@H]5CC[C@H](CO)CC5)c4n3)cc(C(F)(F)F)c2C1=O [Example 60, 2-Amino-5-(2-((S)-1-cyclopropylethyl)-1-oxo-7-(trifluoromethyl)isoindolin-5-yl)-N-(trans-4-(hydroxymethyl)cyclohexyl)pyrazolo[1,5-a]pyrimidine-3-carboxamide]	< 100 nM	< 100 nM
C[C@@H](C1CC1)N1Cc2cc(-c3ccn4nc(N)c(C(=O)N[C@H]5CC[C@H](C(C)(C)O)CC5)c4n3)cc(C(F)(F)F)c2C1=O [Example 61, 2-Amino-5-(2-((S)-1-cyclopropylethyl)-1-oxo-7-(trifluoromethyl)isoindolin-5-yl)-N-(trans-4-(2-hydroxypropan-2-yl)cyclohexyl)pyrazolo[1,5-a]pyrimidine-3-carboxamide]	< 100 nM	< 100 nM
C[C@@H](C1CC1)N1Cc2cc(-c3ccn4nc(N)c(C(=O)N[C@H]5CC[C@H](C6(O)CC6)CC5)c4n3)cc(C(F)(F)F)c2C1=O [Example 62, 2-Amino-5-(2-((S)-1-cyclopropylethyl)-1-oxo-7-(trifluoromethyl)isoindolin-5-yl)-N-(trans-4-(1-hydroxycyclopropyl)cyclohexyl)pyrazolo[1,5-a]pyrimidine-3-carboxamide]	< 100 nM	< 100 nM
C[C@@H](C1CC1)N1Cc2cc(-c3ccn4nc(N)c(C(=O)N[C@H]5CCC[C@@H](O)C5)c4n3)cc(C(F)(F)F)c2C1=O [Example 63, 2-Amino-5-{2-[(1S)-1-cyclopropylethyl]-1-oxo-7-(trifluoromethyl)-2,3-dihydro-1H-isoindol-5-yl}-N-[(1S,3R)-3-hydroxycyclohexyl]pyrazolo[1,5-a]pyrimidine-3-carboxamide]	< 100 nM	< 100 nM
C[C@@H](C1CC1)N1Cc2cc(-c3ccn4nc(N)c(C(=O)N[C@H]5CNC(=O)C5)c4n3)cc(C(F)(F)F)c2C1=O [Example 64, 2-Amino-5-{2-[(1S)-1-cyclopropylethyl]-1-oxo-7-(trifluoromethyl)-2,3-dihydro-1H-isoindol-5-yl}-N-[(3R)-5-oxopyrrolidin-3-yl]pyrazolo[1,5-a]pyrimidine-3-carboxamide]	< 100 nM	< 100 nM
C[C@@H](C1CC1)N1Cc2cc(-c3ccn4nc(N)c(C(=O)N[C@H]5C[C@H](O)C5)c4n3)cc(C(F)(F)F)c2C1=O [Example 65, 2-Amino-5-{2-[(1S)-1-cyclopropylethyl]-1-oxo-7-(trifluoromethyl)-2,3-dihydro-1H-isoindol-5-yl}-N-[trans-3-hydroxycyclobutyl]pyrazolo[1,5-a]pyrimidine-3-carboxamide]	< 100 nM	< 100 nM
C[C@@H](C1CC1)N1Cc2cc(-c3ccn4nc(N)c(C(N)=O)c4n3)cc(C(F)(F)F)c2C1=O [Example 66]	100 to 1000 nM	< 100 nM
CNC(=O)c1c(N)nn2ccc(-c3cc4c(c(C(F)(F)F)c3)C(=O)N([C@@H](C)C3CC3)C4)nc12 [Example 67, 2-[(S)-1-Cyclopropylethyl]-5-[2-amino-3-(methylamino)carbonyl-1,4,7a-triaza-5-indenyl]-7-(trifluoromethyl)-1-isoindolinone]	< 100 nM	< 100 nM
CCNC(=O)c1c(N)nn2ccc(-c3cc4c(c(C(F)(F)F)c3)C(=O)N([C@@H](C)C3CC3)C4)nc12 [Example 68, 2-[(S)-1-Cyclopropylethyl]-5-[2-amino-3-(ethylamino)carbonyl-1,4,7a-triaza-5-indenyl]-7-(trifluoromethyl)-1-isoindolinone]	< 100 nM	< 100 nM
C[C@@H](C1CC1)N1Cc2cc(-c3ccn4nc(N)c(C(=O)Nc5ccncc5)c4n3)cc(C(F)(F)F)c2C1=O [Example 69, (S)-2-Amino-5-(2-(1-cyclopropylethyl)-1-oxo-7-(trifluoromethyl)isoindolin-5-yl)-N-(pyridin-4-yl)pyrazolo[1,5-a]pyrimidine-3-carboxamide]	< 100 nM	< 100 nM
C[C@@H](C1CC1)N1Cc2cc(-c3ccn4nc(N)c(C(=O)Nc5cccnc5)c4n3)cc(C(F)(F)F)c2C1=O [Example 70, (S)-2-Amino-5-(2-(1-cyclopropylethyl)-1-oxo-7-(trifluoromethyl)isoindolin-5-yl)-N-(pyridin-3-yl)pyrazolo[1,5-a]pyrimidine-3-carboxamide]	< 100 nM	< 100 nM
C[C@@H](C1CC1)N1Cc2cc3cc(c2C1=O)OCCOCCNC(=O)c1c(N)nn2ccc-3nc12 [Example 71, 6-[(S)-1-Cyclopropylethyl]-19-amino-10.13-dioxa-6.16.20.21.24-pentaazapentacyclo[16.5.2.12,9.04,8.021,25]hexacosa-1(24),2,4(8),9(26),18(25),19,22-heptaene-7,17-dione]	< 100 nM	< 100 nM

Next, values leading:

IC50 [1]	IC50 [2]	Structure (SMILES)
< 100 nM	< 100 nM	COc1ccncc1NC(=O)c1c(N)nn2ccc(-c3cc4c(c(OC(F)(F)F)c3)C(=O)N([C@@H](C)C3CC3)C4)nc12 [Example 48, (S)-2-Amino-5-(2-(1-cyclopropylethyl)-1-oxo-7-(trifluoromethoxy)isoindolin-5-yl)-N-(4-methoxypyridin-3-yl)pyrazolo[1,5-a]pyrimidine-3-carboxamide]
< 100 nM	< 100 nM	C[C@@H](C1CC1)N1Cc2cc(-c3ccn4nc(N)c(C(=O)N[C@H]5CCNC5=O)c4n3)cc(C(F)(F)F)c2C1=O [Example 49, 2-Amino-5-{2-[(1S)-1-cyclopropylethyl]-1-oxo-7-(trifluoromethyl)-2,3-dihydro-1H-isoindol-5-yl}-N-[(3S)-2-oxopyrrolidin-3-yl]pyrazolo[1,5-a]pyrimidine-3-carboxamide]
< 100 nM	< 100 nM	C[C@H](CO)NC(=O)c1c(N)nn2ccc(-c3cc4c(c(C(F)(F)F)c3)C(=O)N([C@@H](C)C3CC3)C4)nc12 [Example 50, 5-(3-{[(R)-2-Hydroxy-1-methylethylamino]carbonyl}-2-amino-1,4,7a-triaza-5-indenyl)-2-[(S)-1-cyclopropylethyl]-7-(trifluoromethyl)-1-isoindolinone]
< 100 nM	< 100 nM	C[C@@H](C1CC1)N1Cc2cc(-c3ccn4nc(N)c(C(=O)NCCO)c4n3)cc(C(F)(F)F)c2C1=O [Example 51, 2-[(S)-1-Cyclopropylethyl]-5-{2-amino-3-[(2-hydroxyethylamino)carbonyl]-1,4,7a-triaza-5-indenyl}-7-(trifluoromethyl)-1-isoindolinone]
< 100 nM	< 100 nM	C[C@@H](C1CC1)N1Cc2cc(-c3ccn4nc(N)c(C(=O)NCCCO)c4n3)cc(C(F)(F)F)c2C1=O [Example 52, 2-[(S)-1-Cyclopropylethyl]-5-{2-amino-3-[(3-hydroxypropylamino)carbonyl]-1,4,7a-triaza-5-indenyl}-7-(trifluoromethyl)-1-isoindolinone]
< 100 nM	< 100 nM	C[C@@H](C1CC1)N1Cc2cc(-c3ccn4nc(N)c(C(=O)NC5COC5)c4n3)cc(C(F)(F)F)c2C1=O [Example 53, 2-[(S)-1-Cyclopropylethyl]-5-{2-amino-3-[(3-oxetanylamino)carbonyl]-1,4,7a-triaza-5-indenyl}-7-(trifluoromethyl)-1-isoindolinone]
< 100 nM	< 100 nM	C[C@@H](C1CC1)N1Cc2cc(-c3ccn4nc(N)c(C(=O)N[C@H]5CC[C@@](C)(O)CC5)c4n3)cc(C(F)(F)F)c2C1=O [Example 54, 2-[(S)-1-Cyclopropylethyl]-5-{2-amino-3-[(cis-4-hydroxy-4-methylcyclohexylamino)carbonyl]-1,4,7a-triaza-5-indenyl}-7-(trifluoromethyl)-1-isoindolinone]
< 100 nM	< 100 nM	C[C@@H](C1CC1)N1Cc2cc(-c3ccn4nc(N)c(C(=O)N[C@H]5CC[C@](O)(C(F)(F)F)CC5)c4n3)cc(C(F)(F)F)c2C1=O [Example 55, 2-[(S)-1-Cyclopropylethyl]-5-(2-amino-3-{[cis-4-hydroxy-4-(trifluoromethyl)cyclohexylamino]carbonyl}-1,4,7a-triaza-5-indenyl)-7-(trifluoromethyl)-1-isoindolinone]
